Experiments:
HCV replicon = assay: Anti-HCV replicon assay, EC50 (luciferase readout); type: cell-based; conditions: Hepatitis C virus, 72 h; Huh-7 HCV replicon cells, 3 days incubation, luciferase luminescence
Procedure, shortened: (§1)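 Huh-7 cells harbouring an HCV replicon (6000/well) incubated 3 days at 37° C with 3-fold serially diluted compound (0.5% DMSO final where used). EC50 from luciferase luminescence of lysed cells; CC50 from CellTiter-Glo luminescence in parallel plates.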

[1] = CC50 assay in the anti-HCV replicon assay (CellTiter-Glo); type: cell-based, human; conditions: human, Huh-7 hepatoma cells harbouring an HCV replicon; Huh-7 HCV replicon cells, 3 days incubation, CellTiter-Glo luminescence
Procedure, shortened: as §1

Compound	EC50 (HCV replicon) [nM]	CC50 at 3 days [1] [µM]
CC(C)Oc1nc(N)nc2ccc(-c3ccc(C(=O)NCc4ccccc4)cc3)cc12 [Example 170, 4-(2-Amino-4-isopropoxy-quinazolin-6-yl)-N-benzyl-benzamide]	300 to 1000	< 10
CC(C)CNC(=O)c1ccc(-c2ccc3nc(N)nc(OC(C)C)c3c2)cc1 [Example 171, 4-(2-Amino-4-isopropoxy-quinazolin-6-yl)-N-isobutyl-benzamide]	300 to 1000	10 to 20
CC(C)Oc1nc(N)nc2ccc(-c3ccc(C(=O)NC4CCCCC4)cc3)cc12 [Example 172, 4-(2-Amino-4-isopropoxy-quinazolin-6-yl)-N-cyclohexyl-benzamide]	300 to 1000	< 10
CCCCNC(=O)c1ccc(-c2ccc3nc(N)nc(OC(C)C)c3c2)cc1 [Example 173, 4-(2-Amino-4-isopropoxy-quinazolin-6-yl)-N-butyl-benzamide]	< 300	< 10
CC(C)Oc1nc(N)nc2ccc(-c3ccc(C(=O)NC(C)(C)C)cc3)cc12 [Example 174, 4-(2-Amino-4-isopropoxy-quinazolin-6-yl)-N-tert-butyl-benzamide]	300 to 1000	10 to 20
CC(C)Oc1nc(N)nc2ccc(-c3ccc(C(=O)NC4CCCC4)cc3)cc12 [Example 175, 4-(2-Amino-4-isopropoxy-quinazolin-6-yl)-N-cyclopentyl-benzamide]	< 300	< 10
CC(C)NC(=O)c1ccc(-c2ccc3nc(N)nc(OC(C)C)c3c2)cc1 [Example 176, 4-(2-Amino-4-isopropoxy-quinazolin-6-yl)-N-isopropyl-benzamide]	< 300	10 to 20
CONC(=O)c1ccc(-c2ccc3nc(N)nc(OC(C)C)c3c2)cc1 [Example 177, 4-(2-Amino-4-isopropoxy-quinazolin-6-yl)-N-methoxy-benzamide]	< 300	10 to 20
CC(C)Oc1nc(N)nc2ccc(-c3ccc(C(=O)NCCN(C)C)cc3)cc12 [Example 178, 4-(2-Amino-4-isopropoxy-quinazolin-6-yl)-N-(2-dimethylamino-ethyl)-benzamide]	< 300	< 10
CC(C)Oc1nc(N)nc2ccc(-c3ccc(C(=O)Nc4ccc(F)cc4)cc3)cc12 [Example 179, 4-(2-Amino-4-isopropoxy-quinazolin-6-yl)-N-(4-fluoro-phenyl)-benzamide]	300 to 1000	< 10
CC(C)Oc1nc(N)nc2ccc(-c3ccc(C(=O)N4CCSCC4)cc3)cc12 [Example 180, [4-(2-Amino-4-isopropoxy-quinazolin-6-yl)-phenyl]-thiomorpholin-4-yl-methanone]	1000 to 10000	10 to 20
CC(C)Oc1nc(N)nc2ccc(-c3ccc(C(=O)NC4=NCCS4)cc3)cc12 [Example 181, 4-(2-Amino-4-isopropoxy-quinazolin-6-yl)-N-(4,5-dihydro-thiazol-2-yl)-benzamide]	300 to 1000	10 to 20
CNC(=O)c1ccc(-c2ccc3nc(N)nc(OC(C)C)c3c2)cc1Cl [Example 182, 4-(2-Amino-4-isopropoxy-quinazolin-6-yl)-2-chloro-N-methyl-benzamide]	< 300	> 20
CC(C)Oc1nc(N)nc2ccc(-c3ccc(C(=O)NC4CC4)c(Cl)c3)cc12 [Example 183, 4-(2-Amino-4-isopropoxy-quinazolin-6-yl)-2-chloro-N-cyclopropyl-benzamide]	300 to 1000	> 20
CC(C)Oc1nc(N)nc2ccc(-c3cccc(O)c3)cc12 [Example 184, 3-(2-Amino-4-isopropoxy-quinazolin-6-yl)-phenol]	300 to 1000	< 10
CC(C)Oc1nc(N)nc2ccc(-c3ccc(C(=O)NC4CC4)cc3)cc12 [Example 185, 4-(2-Amino-4-isopropoxy-quinazolin-6-yl)-N-cyclopropyl-benzamide]	< 300	< 10

— patent publication US8673929B2, “4,6-di- and 2,4,6-trisubstituted quinazoline derivatives and pharmaceutical compositions useful for treating viral infections” (priority 2006, dated 2014)
